Patent US20130071892A1, “PROCESS FOR PRODUCTION OF POLYHYDROXYALKANOIC ACID USING GENETICALLY MODIFIED MICROORGANISM HAVING ENOYL-CoA HYDRATASE GENE INTRODUCED THEREIN” (TOKYO INSTITUTE OF TECHNOLOGY, priority 2010, published 2013)

Tests used:
[1] = tested on: C. necator R form-specific enoyl-CoA hydratase PhaJ3 (phaJ3 gene), wild type, recombinant N-terminal His tag; experiment: enoyl-CoA hydratase activity, absorbance decrease at 263 nm, Lineweaver-Burk analysis; type: biochemical, Cupriavidus necator H16; conditions: 100 mM Tris-HCl buffer (pH 7.8); for Km: read-out: Michaelis constant Km
From the text: (§1) By homology search with a known R form-specific enoyl CoA hydratase, phaJ1 (SEQ ID NO: 2), phaJ2 (SEQ ID NO: 3), and phaJ3 were identified as a presumptive R form-specific enoyl CoA hydratase gene. Then, using the genomic DNA of C. necator as the template, phaJ1 was amplified by a PCR method with the oligonucleotides of the following sequence 19 and sequence 20 as the primers. Similarly, phaJ2 was amplified by a PCR method with the oligonucleotides of sequence 21 and sequence 22 as the primers. Furthermore, phaJ3 was amplified by a PCR method with the oligonucleotides of sequence 23 and sequence 24 as the primers. Using the KOD Plus (manufactured by TOYOBO) for PCR, a cycle comprising 20 seconds at 98° C., 15 seconds at 61° C. and 2 minutes at 68° C. was repeated for 30 cycles.
(§2) Each fragment of phaJ1, phaJ2 and phaJ3 that were amplified and cleaved with NdeI and XhoI in Example 16 was inserted into an expression plasmid pCOLDII (manufactured by Takara-Bio) cleaved with each of NdeI and XhoI. The plasmids obtained were designated as pCOLD-J1, pCOLD-J2 and pCOLD-J3. These expression plasmids have been constructed so as to produce recombinant protein in which a tag sequence (hereinafter referred to as His tag) comprising 6 histidine residues has been added to the amino terminal end. Using pCOLD-J1, pCOLD-J2 and pCOLD-J3, E. coli strain BL21 (DE3) (manufactured by Novagen) was transformed. Each transformant obtained was cultured in 100 mL of LB medium with 100 mg ampicillin at 37° C. for 4 hours, to which isopropyl-thiogalacto-pyranoside (IPTG) was added at a final concentration of 0.5 mM to induce expression, and further culcuted at 15° C. for 24 hours. The cells collected by centrifugation were resuspended in 20 mM sodium phosphate buffer (pH 7.4) containing 30 mM imidazole and 500 mM NaCl, sonic-disrupted and centrifuged to obtain soluble protein fractions.
(§3) This soluble protein fraction was filtered with a filter having a pore size of 0.22 μm. Then, this was subjected to the HisTrap FF crude column (1 ml) (manufactured by GE Healthcare) equalized in advance with 20 mM sodium phosphate buffer (pH 7.4) containing 30 mM imidazole and 500 mM NaCl so as to allow the His tag-carrying protein to be adsorbed. Subsequently, by linearly increasing the imidazole concentration from 30 mM to 500 mM, the adsorbed protein was eluted and recovered to prepare purified enzyme.
(§4) Proteins expressed from the three genes, phaJ1, phaJ2 and phaJ3, derived from C. necator are hereinafter referred to as PhaJ1, PhaJ2 and PhaJ3, respectively. For each of purified recombinant protein products produced in E. coli, the activity of enoyl-CoA hydratase when crotonyl-CoA (4 carbons), 2-hexenoyl-CoA (6 carbons) or 2-octenoyl-CoA (8 carbons) was used as the substrate was determined according to the method described in Non-patent document 4. Thus, the purified enzyme was added to 100 mM Tris-HCl buffer (pH 7.8) containing the substrate (a total volume of 400 μl), and reduction in absorbance at 263 nm was measured with a spectrophotometer. At this time, the measured values obtained by varying the substrate concentration were analyzed by the Lineweaver-Burk plot to calculate the Michaelis constant Km, and the maximum velocity Vmax.

[2] = molecular target: C. necator R form-specific enoyl-CoA hydratase PhaJ2 (phaJ2 gene, H16_B0397, SEQ ID NO: 3), wild type, recombinant N-terminal His tag (Cupriavidus necator, UniProt Q0K478); experiment: as above; type: biochemical, Cupriavidus necator H16; conditions: 100 mM Tris-HCl buffer (pH 7.8)
From the text: as §1, §2, §3, §4

[3] = molecular target: T1, C. necator R form-specific enoyl-CoA hydratase PhaJ1 (phaJ1 gene, H16_A1070, SEQ ID NO: 2), wild type, recombinant N-terminal His tag (Cupriavidus necator, UniProt Q0KCR0); experiment: as above; type: biochemical, Cupriavidus necator H16; conditions: 100 mM Tris-HCl buffer (pH 7.8)
T1 sequence (Q0KCR0 1-158): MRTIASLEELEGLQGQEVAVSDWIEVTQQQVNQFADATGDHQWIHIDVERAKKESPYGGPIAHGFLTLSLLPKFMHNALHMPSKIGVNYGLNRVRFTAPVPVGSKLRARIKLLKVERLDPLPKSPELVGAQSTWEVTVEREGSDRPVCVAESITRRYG
From the text: as §1, §2, §3, §4

[4] = substrate: C/C=C/C(=O)SCCNC(=O)CCNC(=O)[C@H](O)C(C)(C)COP(=O)(O)OP(=O)(O)OC[C@H]1O[C@@H](n2cnc3c(N)ncnc32)[C@H](O)[C@@H]1OP(=O)(O)O; experiment: as above; type: biochemical, Cupriavidus necator H16
From the text: as §1, §2, §3, §4

[5] = substrate: CCC/C=C/C(=O)SCCNC(=O)CCNC(=O)[C@H](O)C(C)(C)COP(=O)(O)OP(=O)(O)OC[C@H]1O[C@@H](n2cnc3c(N)ncnc32)[C@H](O)[C@@H]1OP(=O)(O)O; experiment: as above; type: biochemical, Cupriavidus necator H16
From the text: as §1, §2, §3, §4

[6] = substrate: CCCCC/C=C/C(=O)SCCNC(=O)CCNC(=O)[C@H](O)C(C)(C)COP(=O)(O)OP(=O)(O)OC[C@H]1O[C@@H](n2cnc3c(N)ncnc32)[C@H](O)[C@@H]1OP(=O)(O)O; experiment: as above; type: biochemical, Cupriavidus necator H16
From the text: as §1, §2, §3, §4

[7] = stereoselectivity of the hydration reaction, coupled with PHA granule-mediated polymerization and DTNB; type: biochemical; conditions: for absorbance at 412 nm: 0.2 mM crotonyl-CoA, 1 mM DTNB, 5 μl PHA granule fraction, 100 mM Tris-HCl pH 7.8, FIG. 4; for stereoselectivity of the hydration reaction: concluded from the CoA-SH release with PHA granule fraction and DTNB
From the text: FIG. 4 The result of investigating the stereoselectivity of PhaJ1, PhaJ2 and PhaJ3 by the conjugation of the enoyl-CoA hydratase-mediated hydration reaction and the PHA granules-mediated polymerization reaction. (A) PhaJ1, (B) PhaJ2, and (C) PhaJ3; dark square: purified enzyme added, open triangle: no purified enzyme added.
In the above measurement of enoyl-CoA hydratase activity, no findings can be obtained on stereoselectivity at the addition of water to the double bond. Thus, the stereoselectivity of the hydration reaction by PhaJ1, PhaJ2 and PhaJ3 was investigated as follows. From the cells of C. necator that accumulated PHA, a water-insoluble PHA granule fraction can be prepared, but PHA synthetic synthase is bound to the surface of the PHA granules. This PHA synthase specifically polymerizes (R)-3-hydroxyacyl-CoA and releases CoA-SH. Thus, when both of the PHA granule fraction and 5,5′-dithiobis(2-nitrobenzoic acid) (DTNB) are present in the reaction solution for determining enoyl-CoA hydratase activity, COA-SH released together with the polymerization by PHA synthase reacts with DTNB to produce a yellow dye having a specific absorption at 412 nm, if the specificity of enoyl-CoA hydratase is (R)-form-specific. Conversely, when enoyl-CoA hydratase is (S)-form-specific, no yellow dye is produced.
Measurement was carried out according to the method described in Non-patent document 4. Thus, the PHA granule fraction was prepared from the cells of the C. necator wild type strain (the H16 strain) cultured for 36 hours in 100 ml of a medium containing fructose as a carbon source in a method described in Example 18. The cells were collected by centrifugation from the culture, and suspended in 3 ml of 50 mM Tris-HCl buffer (pH 7.5) followed by sonic-disruption. The supernatant obtained by low-speed centrifugation of the disruption liquid at 1,500×g, 5 min was further subjected to high-speed centrifugation at 15,000×g, 15 min. And the precipitate fraction was suspended in 3 ml of 50 mM Tris-HCl buffer (pH 7.5) to prepare a PHA granule fraction. Then, the purified enzyme was added to 100 mM Tris-HCl buffer (pH 7.8) containing 0.2 mM crotonyl-CoA, 1 mM DTNB and 5 μl PHA granule fraction (a total volume of 400 μl), and an increase in absorbance at 412 nm was measured.

[8] = other: PhaJ2, 100 mM Tris-HCl buffer (pH 7.8)
[9] = other: PhaJ1, 100 mM Tris-HCl buffer (pH 7.8)

With `CCC/C=C/C(=O)SCCNC(=O)CCNC(=O)[C@H](O)C(C)(C)COP(=O)(O)OP(=O)(O)OC[C@H]1O[C@@H](n2cnc3c(N)ncnc32)[C@H](O)[C@@H]1OP(=O)(O)O` [2-hexenoyl-CoA (C6), 2-hexenoyl-CoA] the “Maximum velocity Vmax” value [1] was 1.1 ± 0.1 × 10^2 U mg^−1, the Km [1] was 110 ± 16 µM and the “Maximum velocity Vmax” value [2] was 2.4 ± 0.3 × 10^3 U mg^−1. For the same molecule, the “Maximum velocity Vmax” value [3] was 7.0 ± 0.5 × 10^2 U mg^−1.

For `CCCCC/C=C/C(=O)SCCNC(=O)CCNC(=O)[C@H](O)C(C)(C)COP(=O)(O)OP(=O)(O)OC[C@H]1O[C@@H](n2cnc3c(N)ncnc32)[C@H](O)[C@@H]1OP(=O)(O)O` [2-oxtenoyl-CoA (C8), 2-octenoyl-CoA], the “Maximum velocity Vmax” value [1] was 2.8 ± 0.5 × 10^2 U mg^−1, the Km [1] was 38 ± 12 µM and the “Maximum velocity Vmax” value [2] was 2.0 ± 0.1 × 10^3 U mg^−1. For the same molecule, the “Maximum velocity Vmax” value [3] was 6.7 ± 0.7 × 10^2 U mg^−1.

In the case of `C/C=C/C(=O)SCCNC(=O)CCNC(=O)[C@H](O)C(C)(C)COP(=O)(O)OP(=O)(O)OC[C@H]1O[C@@H](n2cnc3c(N)ncnc32)[C@H](O)[C@@H]1OP(=O)(O)O` [Crotonyl-CoA (C4), crotonyl-CoA], the “Maximum velocity Vmax” value [1] is reported as 1.3 ± 0.2 × 10^1 U mg^−1, the Km [1] is reported as 178 ± 46 µM and the “Maximum velocity Vmax” value [2] is reported as 1.4 ± 0.1 × 10^2 U mg^−1.

B1: C. necator R form-specific enoyl-CoA hydratase PhaJ2 (phaJ2 gene, H16_B0397, SEQ ID NO: 3), wild type, recombinant N-terminal His tag (Cupriavidus necator H16) (protein)
chain: MKTYENIADLQPLVGEVIGTSEWLALDQARINTFADATGDHQWIHVDVERAKNGPFGAPIAHGFLTLSLLPAFTHSAYRIRNSSTGVNYGLDKVRFPAPVPVDSLLRAQFKLMSYEALENGGAQFKVEMMVERQGGSKPVCIAESILRRFP
For B1, the Km [4, 8] was 311 ± 15 µM, the Km [5, 8] was 77 ± 14 µM and the Km [6, 8] was 23 ± 4 µM.

B2: PhaJ2: purified His-tagged recombinant protein expressed in E. coli from phaJ2 (SEQ ID NO: 3) of C. necator; (R)-form-specific enoyl-CoA hydratase (protein)
chain: MKTYENIADLQPLVGEVIGTSEWLALDQARINTFADATGDHQWIHVDVERAKNGPFGAPIAHGFLTLSLLPAFTHSAYRIRNSSTGVNYGLDKVRFPAPVPVDSLLRAQFKLMSYEALENGGAQFKVEMMVERQGGSKPVCIAESILRRFP
modifications: His tag; Cupriavidus necator R-hydratase gene (phaJ2); Cupriavidus necator strain H16 (R)-form- specific enoyl-CoA hydratase (R-hydratase, phaJ2), H16_B0397
With B2 the “absorbance at 412 nm” value [7] was “increase” and the “stereoselectivity of the hydration reaction” value [7] was “(R)-form-specific”.

B3: C. necator R form-specific enoyl-CoA hydratase PhaJ1 (phaJ1 gene, H16_A1070, SEQ ID NO: 2), wild type, recombinant N-terminal His tag (Cupriavidus necator H16) (protein)
chain: MRTIASLEELEGLQGQEVAVSDWIEVTQQQVNQFADATGDHQWIHIDVERAKKESPYGGPIAHGFLTLSLLPKFMHNALHMPSKIGVNYGLNRVRFTAPVPVGSKLRARIKLLKVERLDPLPKSPELVGAQSTWEVTVEREGSDRPVCVAESITRRYG
B3 gave a Km [4, 9] of 91 ± 5 µM, a Km [5, 9] of 41 ± 7 µM and a Km [6, 9] of 24 ± 5 µM.

B4: PhaJ1: purified His-tagged recombinant protein expressed in E. coli from phaJ1 (SEQ ID NO: 2) of C. necator; (R)-form-specific enoyl-CoA hydratase (protein)
chain: MRTIASLEELEGLQGQEVAVSDWIEVTQQQVNQFADATGDHQWIHIDVERAKKESPYGGPIAHGFLTLSLLPKFMHNALHMPSKIGVNYGLNRVRFTAPVPVGSKLRARIKLLKVERLDPLPKSPELVGAQSTWEVTVEREGSDRPVCVAESITRRYG
modifications: His tag; Cupriavidus necator; Cupriavidus necator strain H16 (R)-form- specific enoyl-CoA hydratase (R-hydratase, phaJ1), H16_A1070
In the case of B4, the “absorbance at 412 nm” value [7] is reported as “increase” and the “stereoselectivity of the hydration reaction” value [7] is reported as “(R)-form-specific”.
